Laboratory results from publication PMC11882969 (Nature Communications, 2025).
“And” between values parts separate entries of the source, which are not always exact repeats. Equal values may be shown once. Read-outs that look alike come from different tables or passages of the source.

Assays:
hCB1 = hCB1 (Homo sapiens, UniProt P21554); assay: Lance Ultra cAMP accumulation assay, CHO cells; type: cell-based; set-up: expressed in transfected cells; settings: for normalised cAMP response, concentration-response (Figure2f), replicate values: log[Compound;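 on all read-outs here: human CB1R stably expressed in CHO cells, ligands co-incubated with forskolin at room temperature, read-out is lowering of forskolin-stimulated cAMP accumulation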
Description: The inhibition of forskolin-stimulated cAMP accumulation assays was carried out using PerkinElmer’s Lance Ultra cAMP kit following the manufacturer’s protocol. In brief, CHO cells stably expressing human CB1R (provided by the lab of Laura Bohn) were harvested by incubation with Versene (ThermoFisher Scientific, Waltham, MA) for 10 min, washed once with Hank’s Balanced Salt Solution, and resuspended in stimulation buffer at ~200 cells/μL density. The ligands at eight different concentrations (0.001-10,000 nM) in stimulation buffer (5 μL) containing forskolin (2 μM final concentration) were added to a 384-well plate followed by the cell suspension (5 μL; ~1000 cells/well). The plate was incubated for 30 min at room temperature. Eu-cAMP tracer (5 μL) and Ulight-anti-cAMP (5 μL) working solutions were then added to each well, and the plate was incubated at room temperature for an additional 60 min. Results were measured on a Perkin-Elmer EnVision plate reader. The EC50 values were determined by nonlinear regression analysis using Graphpad Prism 9 and are expressed as the mean of three experiments, each performed in triplicate.

CB1 (rCB1) = CB1 (rCB1) (Rattus norvegicus, UniProt P20272); assay: Radioligand competition binding, [3H]-CP-55,940, rat brain membranes; settings: for radioligand binding, competition curve point (normalized): log[drug], replicate columns
CB1 (rCB1), sequence (P20272 whole entry): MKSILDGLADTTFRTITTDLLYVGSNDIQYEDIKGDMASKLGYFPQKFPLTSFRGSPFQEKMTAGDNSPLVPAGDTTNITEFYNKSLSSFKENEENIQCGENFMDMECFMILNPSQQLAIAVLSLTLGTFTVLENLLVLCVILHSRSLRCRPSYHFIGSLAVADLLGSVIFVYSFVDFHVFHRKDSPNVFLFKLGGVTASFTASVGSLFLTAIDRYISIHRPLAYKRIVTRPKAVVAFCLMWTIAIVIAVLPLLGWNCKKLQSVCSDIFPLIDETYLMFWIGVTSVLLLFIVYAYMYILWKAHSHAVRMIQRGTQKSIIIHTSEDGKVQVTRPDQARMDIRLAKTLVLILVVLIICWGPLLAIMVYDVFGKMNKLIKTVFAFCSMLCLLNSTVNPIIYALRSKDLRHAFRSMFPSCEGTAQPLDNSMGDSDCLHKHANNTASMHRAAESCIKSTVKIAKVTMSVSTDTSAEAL

hCB1, sequence (P21554 whole entry): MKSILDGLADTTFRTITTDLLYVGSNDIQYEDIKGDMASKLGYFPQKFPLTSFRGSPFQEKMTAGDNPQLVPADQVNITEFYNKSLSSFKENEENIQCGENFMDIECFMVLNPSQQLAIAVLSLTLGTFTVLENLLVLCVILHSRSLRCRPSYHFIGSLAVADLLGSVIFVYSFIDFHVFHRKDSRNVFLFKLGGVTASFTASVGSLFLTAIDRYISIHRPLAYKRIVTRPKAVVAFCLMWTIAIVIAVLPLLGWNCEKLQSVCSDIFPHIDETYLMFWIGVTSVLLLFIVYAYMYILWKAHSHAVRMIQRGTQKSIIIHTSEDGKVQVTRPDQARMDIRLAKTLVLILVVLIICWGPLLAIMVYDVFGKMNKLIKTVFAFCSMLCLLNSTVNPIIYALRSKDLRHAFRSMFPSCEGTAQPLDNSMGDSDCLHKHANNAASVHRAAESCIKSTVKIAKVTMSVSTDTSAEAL

SMILES: Cc1cc(C(=O)NC(C)(c2ccco2)c2ccco2)nn1-c1cccc(C(F)(F)F)c1 [‘4936]
- EC50 (hCB1): 4.79 nM
- Emax (hCB1; CHO): 65%
- agonism, inhibition of forskolin-stimulated cAMP (hCB1; hCB1-expressing cells, in words): agonists
- normalised cAMP response, concentration-response (Figure2f), replicate values (hCB1; M] -5): 23.9901 and 17.3183 and 31.2071
- normalised cAMP response, concentration-response (Figure2f), replicate values (hCB1; M] -6): 35.8451 and 34.6268 and 48.1963
- normalised cAMP response, concentration-response (Figure2f), replicate values (hCB1; M] -7): 34.8754 and 40.2051 and 42.4315
- normalised cAMP response, concentration-response (Figure2f), replicate values (hCB1; M] -8): 49.8775 and 50.0992 and 49.4868
- normalised cAMP response, concentration-response (Figure2f), replicate values (hCB1; M] -9): 89.3609 and 84.5102 and 106.905
- normalised cAMP response, concentration-response (Figure2f), replicate values (hCB1; M] -10): 90.3788 and 99.666 and 104.111
- normalised cAMP response, concentration-response (Figure2f), replicate values (hCB1; M] -11): 85.7953 and 85.5262 and 99.9371
- normalised cAMP response, concentration-response (Figure2f), replicate values (hCB1; M] -12): 103.02 and 108.188 and 110.316
- Ki (CB1 (rCB1)): 7 nM
- LLE (lipophilic ligand efficiency) (CB1 (rCB1); LLE = pIC50 − clogP): 3.2
- LE (ligand efficiency) (CB1 (rCB1); from rCB1 affinity): 0.37
- pKi [95% CI] (CB1 (rCB1); rCB1): 8.1 [7.9 – 8.4]
- radioligand binding, competition curve point (normalized) (CB1 (rCB1); rCB1, M = -5.643): 23.3333 and 16.4729
- radioligand binding, competition curve point (normalized) (CB1 (rCB1); rCB1, M = -6.357): 15.1515 and 4.845
- radioligand binding, competition curve point (normalized) (CB1 (rCB1); rCB1, M = -7.07): 14.5455 and 12.7907
- radioligand binding, competition curve point (normalized) (CB1 (rCB1); rCB1, M = -7.783): 50 and 46.3178
- radioligand binding, competition curve point (normalized) (CB1 (rCB1); rCB1, M = -8.496): 103.182 and 83.9147
- radioligand binding, competition curve point (normalized) (CB1 (rCB1); rCB1, M = -9.21): 89.2442
- radioligand binding, competition curve point (normalized) (CB1 (rCB1); rCB1, M = -9.923): 99.0909 and 86.6279
- radioligand binding, competition curve point (normalized) (CB1 (rCB1); rCB1, M = -10.636): 105.758 and 87.9845
- fold less potent than CP-55,940 (CB1 (rCB1); rCB1 binding): 2.5 fold
- Ki (CB1 (rCB1); read-out: Ki [95% CI], rCB1, [3H]-CP-55,940): 7.5 nM
- fold improvement in CB1R affinity (CB1 (rCB1); vs parent hit or analog without the change): approximately 6 fold
